Format in all cases: in vivo
Test [1] deals with Spodoptera littoralis. The experiment in a line: Spray test on young cotton plants, action against Spodoptera littoralis larvae. The text has this: (§1) Young transgenic cotton plants which express the δ-endotoxin CryIIIA are sprayed with an aqueous emulsion spray mixture comprising 100, 50, 10, 5, 1 ppm of imidacloprid respectively. After the spray coating has dried on, the cotton plants are populated with 10 adult Anthonomus grandis, 10 Spodoptera littoralis larvae or 10 Heliothis virescens larvae respectively and introduced into a plastic container. Evaluation takes place 3 to 10 days later.
(§2) Young transgenic cotton plants which express the δ-endotoxin CryIIIA are sprayed with an aqueous emulsion spray mixture comprising 100, 50, 10, 5, 1 ppm of thiamethoxam respectively. After the spray coating has dried on, the cotton plants are populated with 10 adult Anthonomus grandis, 10 Spodoptera littoralis larvae or 10 Heliothis virescens larvae respectively and introduced into a plastic container. Evaluation takes place 3 to 10 days later.
(§3) Young transgenic cotton plants which express the δ-endotoxin CryIIIA are sprayed with an aqueous emulsion spray mixture comprising 100, 50, 10, 5, 1 ppm of Ti-435 respectively. After the spray coating has dried on, the cotton plants are populated with 10 adult Anthonomus grandis, 10 Spodoptera littoralis larvae or 10 Heliothis virescens larvae respectively and introduced into a plastic container. Evaluation takes place 3 to 10 days later.
(§4) Young transgenic cotton plants which express the δ-endotoxin CryIa(c) are sprayed with an aqueous emulsion spray mixture comprising 100, 50, 10, 5, 1 ppm of Ti-435 respectively. After the spray coating has dried on, the cotton plants are populated with 10 adult Anthonomus grandis, 10 Spodoptera littoralis larvae or 10 Heliothis virescens larvae respectively and introduced into a plastic container. Evaluation takes place 3 to 10 days later.
(§5) Young transgenic cotton plants which express the δ-endotoxin CryIa(c) are sprayed with an aqueous emulsion spray mixture comprising 100, 50, 10, 5, 1 ppm of thiamethoxam respectively. After the spray coating has dried on, the cotton plants are populated with 10 adult Anthonomus grandis, 10 Spodoptera littoralis larvae or 10 Heliothis virescens larvae respectively and introduced into a plastic container. Evaluation takes place 3 to 10 days later.
(§6) Young transgenic cotton plants which express the δ-endotoxin CryIa(c) are sprayed with an aqueous emulsion spray mixture comprising 100, 50, 10, 5, 1 ppm of imidacloprid respectively. After the spray coating has dried on, the cotton plants are populated with 10 adult Anthonomus grandis, 10 Spodoptera littoralis larvae or 10 Heliothis virescens larvae respectively and introduced into a plastic container. Evaluation takes place 3 to 10 days later.

Test [2] relates to Heliothis virescens. Description: Spray test on young cotton plants, action against Heliothis virescens larvae. To be noted: non-transgenic cotton treated with compound and conventional CryIIIA-toxin, each 100, 50, 10, 5, 1 ppm.
Test [3] concerns Anthonomus grandis. The experiment in a line: Spray test on young cotton plants, action against Anthonomus grandis adults. To be noted: non-transgenic cotton treated with compound and conventional CryIIIA-toxin, each 100, 50, 10, 5, 1 ppm.
The test system of test [4] is Anthonomus grandis. Described as above. To be noted: spray 100, 50, 10, 5, 1 ppm, evaluation 3 to 10 days.
Excerpt: as §1, §2, §3, §4, §5, §6

Another test relates to Heliothis spp. Description: Maize plot spray test (KnockOut vs conventional maize), action against Heliothis spp. Particulars: 6 days; for control (percentage reduction in population, % action): plot (a) maize cv. KnockOut, spray 200, 100, 50, 10, 5, 1 ppm, natural infestation; for control level: plot (b) conventional maize, compound 200, 100, 50, 10, 5, 1 ppm, then same ppm of the endotoxin expressed by KnockOut. Here is the method:
(§7) A plot (a) planted with maize cv. KnockOut® and an adjacent plot (b) of the same size which is planted with conventional maize, both showing natural infestation with Ostrinia nubilalis, Spodoptera spp. or Heliothis, are sprayed with an aqueous emulsion spray mixture comprising 200, 100, 50, 10, 5, 1 ppm of Ti-435. Immediately afterwards, plot (b) is treated with an emulsion spray mixture comprising 200, 100, 50, 10, 5, 1 ppm of the endotoxin expressed by KnockOut®. Evaluation takes place 6 days later. The percentage reduction in population (% action) is determined by comparing the number of dead pests on the plants of plot (a) with that on the plants of plot (b).
as §7, with “thiamethoxam.” for “Ti-435.”
as §7, with “imidacloprid.” for “Ti-435.”

The test system of a further test is Ostrinia nubilalis. The experiment in a line: Maize plot spray test (KnockOut vs conventional maize), action against Ostrinia nubilalis. To be noted: 6 days; for control (percentage reduction in population, % action): plot (a) maize cv. KnockOut, spray 200, 100, 50, 10, 5, 1 ppm, natural infestation; for control level: plot (b) conventional maize, compound 200, 100, 50, 10, 5, 1 ppm, then same ppm of the endotoxin expressed by KnockOut. The protocol:
as §7
as §7, with “thiamethoxam.” for “Ti-435.”
as §7, with “imidacloprid.” for “Ti-435.”

Test [5] relates to Heliothis virescens. The experiment in a line: Spray test on young cotton plants, action against Heliothis virescens larvae. To be noted: spray 100, 50, 10, 5, 1 ppm, evaluation 3 to 10 days.
Excerpt: as §1, §2
Young transgenic cotton plants which express the δ-endotoxin CryIIIA are sprayed with an aqueous emulsion spray mixture comprising 100, 50, 10, 5, 1 ppm of Ti-435 respectively. After the spray coating has dried on, the cotton plants are populated with 10 adult Anthonomus grandis, 10 Spodoptera littoralis larvae or 10 Heliothis virescens larvae respectively and introduced into a plastic container. Evaluation takes place 3 to 10 days later. […]

The test system of test [6] is Spodoptera littoralis. The experiment in a line: Spray test on young cotton plants, action against Spodoptera littoralis larvae. The source holds these as a separate data set.
The next test relates to Spodoptera spp. The experiment in a line: Maize plot spray test (KnockOut vs conventional maize), action against Spodoptera spp. Particulars: 6 days; for control (percentage reduction in population, % action): plot (a) maize cv. KnockOut, spray 200, 100, 50, 10, 5, 1 ppm, natural infestation; for control level: plot (b) conventional maize, compound 200, 100, 50, 10, 5, 1 ppm, then same ppm of the endotoxin expressed by KnockOut. Here is the method:
as §7
as §7, with “thiamethoxam.” for “Ti-435.”
as §7, with “imidacloprid.” for “Ti-435.”

Where [7] appears, read: non-transgenic cotton treated with compound and conventional CryIIIA-toxin, each 100, 50, 10, 5, 1 ppm, comparison arm for CryIa(c) cotton.
Setting [8] is: transgenic cotton expressing δ-endotoxin CryIa(c), spray 100, 50, 10, 5, 1 ppm, evaluation 3 to 10 days.
Where [9] appears, read: comparison arm for CryIIIA cotton.
Where [10] appears, read: comparison arm for CryIa(c) cotton.
[11] abbreviates: transgenic cotton expressing δ-endotoxin CryIIIA, compared with non-transgenic plant.
[12] abbreviates: transgenic cotton expressing δ-endotoxin CryIa(c).
The mark [13] stands for this setting: transgenic cotton expressing δ-endotoxin CryIIIA, spray 100, 50, 10, 5, 1 ppm, evaluation 3 to 10 days, compared with non-transgenic plant.

Structures are written as SMILES.

For `CN/C(=N\[N+](=O)[O-])NCc1cnc(Cl)s1` [Ti-435], the “control of the tested insects (percentage reduction in population or feeding damage, % action)” value in the test on Spodoptera littoralis [1] (setting [7]) was “insufficient”; in the test on Spodoptera littoralis [1] (setting [8]), “superior”; with Heliothis virescens [2] (setting [9]) it was “insufficient”; with Heliothis virescens [2] (setting [10]) it was “insufficient”; in the test on Anthonomus grandis [3] (setting [9]) it was “insufficient”; in the test with Anthonomus grandis [3] (setting [10]), “insufficient”. The “control of the tested insects (percentage reduction in population or feeding damage, % action)” value in the test on Anthonomus grandis [4] (setting [11]) is “superior”; with Anthonomus grandis [4] (setting [12]), “superior”; with Heliothis virescens [5] (setting [11]), “superior”; in the test with Heliothis virescens [5] (setting [12]), “superior”; with Spodoptera littoralis [6] (non-transgenic cotton treated with compound and conventional CryIIIA-toxin, each 100, 50, 10, 5, 1 ppm, comparison arm for CryIIIA cotton), “insufficient”; in the test with Spodoptera littoralis [6] (setting [13]) it was “superior”. Also, the “control (percentage reduction in population, % action)” value with Heliothis spp., with Ostrinia nubilalis and in the test with Spodoptera spp. was “Improved control” throughout. Also, the control level with Heliothis spp., in the test with Ostrinia nubilalis and with Spodoptera spp. was not above 60% in each case.
For the compound `O=[N+]([O-])/N=C1\NCCN1Cc1ccc(Cl)nc1` [imidacloprid], the “control of the tested insects (percentage reduction in population or feeding damage, % action)” value was “insufficient” in the test on Spodoptera littoralis [1] (setting [7]); “superior” in the test with Spodoptera littoralis [1] (setting [8]); “insufficient” in the test on Heliothis virescens [2] (setting [10]); “insufficient” in the test with Anthonomus grandis [3] (setting [10]); “superior” with Anthonomus grandis [4] (setting [11]); “superior” with Anthonomus grandis [4] (setting [12]). In addition, the “control of the tested insects (percentage reduction in population or feeding damage, % action)” value in the test with Heliothis virescens [5] (setting [11]), with Heliothis virescens [5] (setting [12]) and in the test on Spodoptera littoralis [6] (setting [13]) was “superior” throughout. Also, the “control (percentage reduction in population, % action)” value with Heliothis spp., with Ostrinia nubilalis and in the test on Spodoptera spp. was “Improved control” throughout. Besides, the control level with Heliothis spp., in the test on Ostrinia nubilalis and in the test on Spodoptera spp. was not above 60% in each case.

The values are drawn from patent publication US8399378B2, “Use of neonicotinoids in pest control” (Syngenta Crop Protection LLC, priority 1998, dated 2013).
